Reference: publication PMC2866470, “Teratogenic Effects of Diatom Metabolites on Sea Urchin Paracentrotus lividus Embryos” (Marine Drugs, 2010)
Where two headings read alike, the source gives them in different places.

Legend:
[1] = test system: Sphaerechinus granularis embryos; conditions: cited from earlier work
[2] = test system: Paracentrotus lividus embryos; assay: Embryotoxicity test: percentage of hatched sea urchin larvae after 24 hours; type: in vivo; conditions: for Effect on the transition to swimming blastula / larval stage: in vivo; for Concentration of total inhibition of hatching viability (0% of hatched larvae) / Hatching viability: 24 hours; for Hatching viability: at concentrations of circa 3.0 μM
Method: (§1) Paracentrotus lividus (Lamarck) sea urchins were collected during the breeding season by SCUBA diving in the Gulf of Naples and transported in an insulated box to the laboratory, within 1 h after collection, and maintained in captivity in well-aerated water at 18 °C in an open circuit. Living organisms were injected with 0.2 mL of 0.2 M acetylcholine (SIGMA-Aldrich, Milan, Italy) through the peribuccal membrane to induce gamete ejection. Spawned eggs were allowed to settle and were washed three times with 0.22 micron filtered sea water (FSW); eggs were then diluted to a final concentration of 3000 eggs mL^−1. Concentrated sperm was collected ‘dry’, mixing samples from at least three different males and stocking undiluted at +4 °C. Sperm mix was diluted 10 μL in 10 mL SW just before insemination and an aliquot of circa 100 μL of this solution was added to 100 mL of egg suspension. At 2–4 min after sperm addition the eggs were checked for successful fertilization and excess sperm were removed by washing the eggs once with FSW.
PUAs and PUFAs were tested on sea urchin early development. […] All concentrations were tested on egg groups collected from three different females. Groups of eggs from the same animals were used as controls. To test the effect of the solvent, other groups of embryos were incubated in 10% methanol, which was the highest concentration of solvent used for incubation experiments. Embryos were kept at 20 °C in a controlled temperature chamber under 12:12 light:dark cycle. […]

[3] = test system: Paracentrotus lividus embryos; assay: Embryotoxicity test: inhibition of first cell cleavage in sea urchin embryos; type: in vivo; conditions: for Concentration at which arrest (100% blockage) of cell cleavage occurs: circa 90 min after fertilization, 20 °C
Method: as §1
PUAs and PUFAs were tested on sea urchin early development. […] All concentrations were tested on egg groups collected from three different females. Groups of eggs from the same animals were used as controls. To test the effect of the solvent, other groups of embryos were incubated in 10% methanol, which was the highest concentration of solvent used for incubation experiments. Embryos were kept at 20 °C in a controlled temperature chamber under 12:12 light:dark cycle.
Cleavage inhibition was assessed by counting at least 200 embryos for each well.
Statistical analysis and IC50 calculation were made by using the Prism software (GraphPad software inc. La Jolla, CA, USA).

[4] = test system: Paracentrotus lividus embryos and pluteus larvae; assay: Teratogenic effect after 48 hours of incubation (abnormalities and mortality of larvae); type: in vivo
Method: PUAs were also tested for their teratogenic effect after long term incubations. After 48 hours of incubation with test compounds, the number of abnormalities and mortality were assessed according to Pagano et al.. Embryos at various stages were observed under a light microscope (Zeiss Axiovert 135TV). Pictures were taken using a Zeiss Axiocam connected directly to the microscope.

[5] = test system: Ciona intestinalis; set-up: method as in PMID 12874802; conditions: printed equivalent 1.32 μM; cited from earlier work
[6] = test system: early P. lividus embryos; set-up: method as in PMID 12939379; conditions: cited from earlier work
[7] = Decadienal stability in nutrient enriched sea water (f/2 medium), spectrophotometric; type: physicochemical
Method: Decadienal stock solution was prepared by diluting a known amount of the substance (determined by weight) in methanol. The methanolic solution was further diluted in autoclaved f/2 medium to achieve decadienal concentration ranging from 0.66 to 32.89 μM. A standard curve was generated by reporting the absorbance at 274 nm of decadienal as a function of its concentration (each determination was performed in triplicate).
To verify decadienal stability, solutions were prepared in triplicate at a starting concentration of 8.96 μM in 250 mL f/2 and incubated in a polystyrene culture flask closed with a screw cap. The UV spectrum and absorbance reading at 274 nm were assessed with time. Decadienal concentration was determined on the basis of a standard curve.

[8] = test system: Paracentrotus lividus embryos and pluteus larvae; assay: TUNEL fluorescence labeling of apoptosis in larvae after 48 hours of exposure; type: in vivo
Method: P. lividus embryos were incubated as described above in decadienal at concentrations ranging from 1.32 to 6.58 μM for 48 hours. Pluteus larvae were fixed in paraformaldehyde 4% (SIGMA-Aldrich, Milan, Italy) in sea water for 2 hours at room temperature. Fixed sea urchin embryos were washed several times in phosphate saline buffer 10 mM at pH 7.4 (PBS) to remove paraformaldehyde and then incubated for 1 h in a solution of 0.1% Triton X-100 and 0.1% sodium citrate, at 4 °C. Apoptosis was assessed using TdT-mediated dUTP nick end labeling (TUNEL) (Roche Diagnostics) according to manufacturer’s instructions. After washing in PBS containing 1% bovine albumin serum (BSA, Sigma-Aldrich), treated samples were incubated at 37 °C for 90 min in TUNEL solution in a humidified chamber, in the dark. Control embryos were fixed and stained as described above. To obtain TUNEL-positive control samples, embryos were incubated for 10 min in 50 mM Tris-HCl, pH 7.5, 10 mM MgCl2, 0.1% dithiothreitol, containing 250 μg mL^−1 DNase I (grade II from bovine pancreas; Boehringer GmbH, Mannheim, Germany) at room temperature. Negative controls were obtained by incubating embryos in label solution only, as recommended by the manufacturer. […] Pictures were taken using a Zeiss Axiocam connected directly to the microscope.

[9] = test system: pelagic copepods; set-up: method as in ref 28 = [28]; 28 Ianora A Romano G Carotenuto Y Esposito F Roncalli V Buttino I Miralto A Impact of the diatom oxylipin 15S-HEPE on the reproductive success of the copepod Temora stylifera Hydrobiologia 2010 submit; conditions: printed equivalent 6.58 μM; cited from earlier work
[10] = test system: Paracentrotus lividus embryos; set-up: method as in ref 18 = [18]; 18 Sellem F Pesando D Bodennec G El Abed A Girard JP Toxic effects of Gymnodinium cf. mikimotoi unsaturated fatty acids to gametes and embryos of the sea urchin Paracentrotus lividus Water Res 2000 34; conditions: P. lividus; cited from earlier work

## O=C/C=C/C=C\CCCC(=O)O [9-oxo-nona-5Z,7E-dienoic acid, reference compound]
[1]; S. granularis embryos
  Activity on embryo cleavage: not inhibitory

## CCC=CCC=CCC=CCC=CCC=CCC=CCCC(=O)O [DHA, 4,7,10,13,16,19-docosahexaenoic acid]
[2]
  Effect on the transition to swimming blastula / larval stage: interfered with the transition to the larval stage
[3]; at 304 μM, 90 min after fertilization
  Percentage of embryos that underwent first cleavage: 34%

## CC/C=C\C/C=C\C/C=C\C/C=C\C/C=C\CCCC(=O)OC [EPA methyl-ester]
[2]
  Concentration of total inhibition of hatching viability (0% of hatched larvae): 158 µM
[3]; in vivo
  Activity on cleavage compared with EPA: drastic reduction in the activity

## CCC=CCC=CCC=CCC=CCC=CCCCC(=O)O [EPA, 5,8,11,14,17-eicosapentaenoic acid]
[2]
  Concentration of total inhibition of hatching viability (0% of hatched larvae): approximately 83 μM
  Effect on the transition to swimming blastula / larval stage: interfered with the transition to the larval stage
[3]; circa 120 eggs mL−1
  Concentration at which arrest (100% blockage) of cell cleavage occurs: 331 µM

## CCCCC/C=C/C=C/C=O [decadienal, 2-trans,4-trans-decadienal]
[4]; 1.32 μM, 48 hours, ± SD
  Abnormal plutei: 11.08% ± 4.4
  Retarded larvae: 11.64% ± 8.2
[4]; 2.63 μM, 48 hours, ±22.42 SD
  Dead and pre-hatching embryos: up to 29.4%
[4]; 3.95 μM, 48 hours, ± SD
  Dead embryos: 53.7% (±24.7 SD)
[4]; 5.26 μM, 48 hours, ± SD
  Embryos not able to survive: 85.1% (±24.7 SD)
[4]; in vivo
  Concentration at which embryos were unable to develop beyond the blastula stage: ≥ 3.95 µM
[4]; newly fertilized eggs, 48 hours
  Sub-lethal concentrations that increased abnormal plutei and delayed development: 1.32 to 5.26 µM
[2]
  Concentration of total inhibition of hatching viability (0% of hatched larvae): 3.95 µM
  Hatching viability: < 50%
[5]
  Sub-lethal concentration inducing abnormal tadpole larvae: 0.2 µg/mL
[6]
  Concentration inducing apoptosis relative to the dose required to induce 100% cleavage inhibition: five
[7]; after 24 hours (start of the gradual decrease), 8.96 μM starting concentration
  Decadienal concentration in f/2 medium: 7.92 (±0.3 SD) μM
[7]; after 24 hours, f/2 medium, 8.96 μM starting concentration
  Change of initial concentration: 11.70%
[7]; after seven days of incubation, natural light, 20 °C, closed vessel, 8.96 μM starting concentration
  Decadienal concentration in f/2 medium: 4.63 (±0.017) μM
[7]; f/2 medium
  Time for which the aldehyde can be detected spectrophotometrically: up to 14 days
[7]; f/2 medium, 8.96 μM starting concentration, closed flask, 20 °C
  Time without significant change of the initial concentration: at least six
[3]; 95% CI = 2.96 to 3.06 μM, circa 120 eggs mL−1
  IC50: 3.01 µM
[3]; circa 120 eggs mL−1
  Concentration at which arrest (100% blockage) of cell cleavage occurs: 5.26 µM
[1]; S. granularis embryos
  Minimum dose to inhibit 100% of embryo cleavage: about 20 μM
[1]; S. granularis embryos, read-out: IC50 of cleavage inhibition
  IC50: 7.3 µM
[1]; S. granularis, low egg density, read-out: IC50 of blockage of cell divisions in newly fertilized eggs
  IC50: 1.3 µM
[8]; 1.32 μM
  Number of embryos presenting a high degree of apoptosis (TUNEL): more or less the same as in the control
[8]; 2.63 μM
  Larvae TUNEL-positive in the entire body: approximately 80%
[8]; 3.95 μM
  Larvae TUNEL-positive: almost all of the larvae were positively stained
[9]
  Concentration to induce malformations and apoptosis: 1 µg/mL

## CC/C=C/C=C/C=O [heptadienal, 2-trans,4-trans-heptadienal]
[2]
  Concentration of total inhibition of hatching viability (0% of hatched larvae): 11.36 µM
  Hatching viability: > 90%
[3]; circa 120 eggs mL−1
  Concentration at which arrest (100% blockage) of cell cleavage occurs: 27.27 µM

## CCCCCC=CCC=CCCCCCCCC(=O)O [linoleic, 9,12-octadecadienoic acid]
[2]; at 357 μM
  Hatching (percentage of embryos): 60%
[3]; highest concentration tested 357 μM, 90 min after fertilization
  Activity on cleavage: no activity

## CCC=CCC=CCC=CCC=CCC=CCC(=O)O [octadecapentaenoic acid]
[10]
  Concentration of total blockage of first cleavage: ≥ 1 mM

## CCC/C=C/C=C/C=O [octadienal, 2-trans,4-trans–octadienal]
[2]
  Concentration of total inhibition of hatching viability (0% of hatched larvae): 8.08 µM
  Hatching viability: > 90%
[3]; circa 120 eggs mL−1
  Concentration at which arrest (100% blockage) of cell cleavage occurs: 16.13 µM

## C=CC/C=C/C=C/C=O [octatrienal, 2-trans,4-trans,7-octatrienal]
[3]; circa 120 eggs mL−1
  Concentration at which arrest (100% blockage) of cell cleavage occurs: 11.47 µM

## CCC=CCC=CCC=CCC=CCCCCC(=O)O [stearidonic acid, 6,9,12,15-octadecatetraenoic acid]
[2]
  Effect on the transition to swimming blastula / larval stage: interfered with the transition to the larval stage
[3]; circa 120 eggs mL−1
  Concentration at which arrest (100% blockage) of cell cleavage occurs: 181 µM

## CCCCCCCCCCCCC=O [tridecanal]
[3]; up to 25 μM, higher concentrations not tested due to solubility problems in sea water
  Effect on first cleavage: did not interfere with first cleavage

## CCCCCC=CCC=CCC=CCCCCC(=O)O [γ-linolenic, 6,9,12-octadecatrienoic acid]
[2]; at 360 μM
  Hatching (percentage of embryos): 50%
[3]; highest concentration tested 359 μM, 90 min after fertilization
  Activity on cleavage: no activity
